In patent US5300679A, “Substituted propane-phosphinic acid compounds” (Ciba-Geigy Corporation, priority 1987, dated 1994):

System: pyramidal cells of hippocampal slice
Test: Penicilline-induced "epileptic" hippocampal slice preparation
Type: cell-based
Conditions: concentration of 6 μM
Procedure: The GABAB antagonists of the present invention interact at the GABAB receptor with IC50 values starting from about 10^-7 M (moles/liter) in rat brain cortex membranes. […] The antagonism against baclofen has also been shown in in vitro electrophysiological models, such as the penicilline-induced "epileptic" hippocampal slice preparation, where baclofen, at a concentration of 6 μM inhibits "epileptic"-like discharges of pyramidal cells. The compounds of the invention antagonise the effects of baclofen at concentrations from approximately 10 to approximately 100 μM. In vivo, antagonism has been shown by ionophoresis of baclofen on rat cerebral cortex, and systemic application of antagonists in doses of 10-100 mg/kg. The muscle relaxant effects of baclofen measured in the rotarod model are also antagonized at doses of about 30 mg/kg ip.

NCC(CC(=O)O)c1ccc(Cl)cc1 (stereo not shown) [baclofen]
inhibition of "epileptic"-like discharges of pyramidal cells: inhibits
